A short description of data set [1]: in vitro. Particulars: rat, in vivo.
For data set [2], the species on record is Mus musculus. The data set is classed as functional.
The species named for data set [3] is Mus musculus. The data set is classed as functional. The source holds these as a separate data set.
For data set [4], the species on record is Rattus norvegicus. Type of data set: functional.
The nature of data set [5]: in vitro. Conditions: rat, in vivo. This is another data set of the same source.
Data set [6] concerns the target T1, Steroid 17-alpha-hydroxylase/17,20 lyase (Homo sapiens, UniProt P05093).
T1 sequence (P05093 whole entry): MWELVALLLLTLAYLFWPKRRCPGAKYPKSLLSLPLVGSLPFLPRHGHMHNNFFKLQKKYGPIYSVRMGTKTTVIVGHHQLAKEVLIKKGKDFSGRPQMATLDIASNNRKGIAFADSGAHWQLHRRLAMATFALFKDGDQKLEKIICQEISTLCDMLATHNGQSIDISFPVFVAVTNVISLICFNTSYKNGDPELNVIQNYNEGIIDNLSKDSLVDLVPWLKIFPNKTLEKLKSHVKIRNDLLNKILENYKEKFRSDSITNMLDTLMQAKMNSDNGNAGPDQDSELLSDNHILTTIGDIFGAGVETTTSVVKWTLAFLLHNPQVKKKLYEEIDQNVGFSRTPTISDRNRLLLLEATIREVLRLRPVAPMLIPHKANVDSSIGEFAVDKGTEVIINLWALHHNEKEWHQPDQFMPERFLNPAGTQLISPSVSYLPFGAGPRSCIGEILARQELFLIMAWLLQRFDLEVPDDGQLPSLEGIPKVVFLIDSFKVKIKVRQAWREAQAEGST

The target in data set [7] is T1, Steroid 17-alpha-hydroxylase/17,20 lyase. Type of data set: microsomes, Testis, Microsomes.
For the next data set, the species on record is Homo sapiens. The data set is classed as functional, Blood.
The species named for data set [8] is Mus musculus. Type of data set: functional, Blood.
Data set [9] is filed under the species Rattus norvegicus. The data set is classed as functional, Blood.
Data set [10] can be described thus: in vitro. Particulars: rat, in vivo. This is another data set of the same source.

In general, half-life refers to the time in which the quantity being followed falls by half. Low values mean rapid decline, high ones slow decline. What is called IC50 is the concentration at which inhibition is half-maximal. A lower IC50 goes with greater potency in that assay.

In the data set “in vitro [1]”, `C[C@H](OC(=O)C12CC3CC(CC(C3)C1)C2)c1ccncc1` came in with a half-life of 30 s.

Turning to `CC(C)(OC(=O)C12CC3CC(CC(C3)C1)C2)c1ccncc1`, the “Substrate metabolized at 1hr” value in the data set listed under Mus musculus [2] came to 2%; in the data set filed under Mus musculus [3], 0%; in the data set listed under Rattus norvegicus [4], 0%. Moreover, in “in vitro [5]”, the half-life at 1 h was greater than 1 h.

Regarding `C[C@@H](NC(=O)C12CC3CC(CC(C3)C1)C2)c1ccncc1`, the figures for the IC50 in [6] and in data set [7] were 1.9 µM and 0.43 µM, respectively.

Take `C[C@@H](OC(=O)C12CC3CC(CC(C3)C1)C2)c1ccncc1`: the half-life in “in vitro [1]” is 30 s.

In the case of `C[C@H](NC(=O)C12CC3CC(CC(C3)C1)C2)c1ccncc1`, the figures for the IC50 in data set [6] and in data set [7] were 0.82 µM and 0.21 µM, respectively.

`O=C(OCc1ccncc1)C12CC3CC(CC(C3)C1)C2`: the “Substrate metabolized at 1hr” value in the data set filed under Homo sapiens turned out to be 45%; in the data set listed under Mus musculus [8], 100%; in the data set listed under Rattus norvegicus [9], 100%. For the same compound, in the data set “in vitro [10]”, the half-life at 1 min was less than 60 s.

Values taken from ChEMBL document CHEMBL1129610, “3- and 4-pyridylalkyl adamantanecarboxylates: inhibitors of human cytochrome P450(17 alpha) (17 alpha-hydroxylase/C17,20-lyase). Potential nonsteroidal agents for the treatment of prostatic cancer” (J Med Chem, 1996).
